{"source": "patent US20060058312A1", "about": "“Stabilized aqueous preparation for injection” (priority 2004, published 2006)", "assay_type_in_all_cases": "physicochemical", "key": {"[1]": {"test": "Stability test at 60° C., addition amount of ascorbic acid at pH 8.1 (Example 4), HPLC content", "conditions": "for remaining calcium levofolinate content compared with the initial value (100): 60° C.", "method": "For the aqueous preparations obtained in (1) to (3) above, tests evaluating stability at 60° C./3 weeks were performed. The calcium levofolinate content remaining in the aqueous solution was measured using high performance liquid chromatography under the following conditions (the same were employed in the following experiments) 2 ml each of the test preparations were weighed, and 10 ml of the internal standard solution described below (the same was employed in the following experiments) were added thereto. Subsequently, water was added to adjust the total volume of the solution to 50 ml, thereby to prepare a test solution. Meanwhile, 62.5 mg of calcium levofolinate were dissolved in water so as to prepare a 25 ml solution. Then, to 10 ml of the resultant solution were added 10 ml of the internal standard solution, and the total volume of the solution was adjusted to 50 ml by adding water, thereby to prepare a standard solution. For 20 μl of the standard solution and the test solution, the content of calcium levofolinate was measured by the liquid chromatography method under the following conditions.\n1) Measurement Conditions • Detector: Ultraviolet absorptiometer (Measurement wavelength: 254 nm) • Column: A stainless tube having an internal diameter of 4.0 mm and a length of 15 cm was filled with 5 μm of octadecylsilylated silica gel for liquid chromatography. • Column temperature: A constant temperature near 45° C. • Mobile phase: The pH value of a mixed test solution containing 0.008 mol/L of disodium hydrogen phosphate solution/methanol/40% aqueous tetrabutylammonium hydroxide solution (385:110:1.3 (volume ratio)) was adjusted to 7.5 by adding phosphoric acid. • Flow rate: The flow rate was regulated so that the retention time of calcium levofolinate became about 10 minutes. • Internal standard solution: A solution prepared by adding water to 0.04 g of methyl parahydroxybenzoate so that the whole amount of solution is 100 ml.\nAbout 80 ml of water for injection were added to a beaker (volume: 200 ml). Then 0.56 g of sodium chloride, 0.3 g of tromethamine, and 1.375 g of calcium levofolinate (1.1 g, in terms of 5-formyl-(6S)-tetrahydrofolic acid) were added to it with bubbling of nitrogen gas, and the components were dissolved with stirring (this procedure was performed […]). Subsequently, 0 (no addition), 0.05 g, 0.1 g, 0.3 g, 0.5 g or 1.0 g of ascorbic acid was added to each solution, and was dissolved with stirring, to prepare six solutions. Thereafter, in the case where the addition amount of ascorbic acid is 0 (no addition), 0.05 g, or 0.1 g, the pH value of each solution was adjusted to 8.1 by adding 5% hydrochloric acid dropwise. In the case where the addition amount of ascorbic acid is 0.3 g, 0.5 g, or 1.0 g, the pH value of each solution was adjusted to 8.1 by adding 1% aqueous sodium hydroxide solution dropwise. Water for injection was further added to each solution to adjust the total volume of the solution to 100 ml. Subsequently, the bubbling of nitrogen gas was stopped, and each solution was filtered with a filtration filter, thereby to yield a solution for injection. Subsequently, each of five 5 ml-glass ampules the inside space of which had been substituted by nitrogen gas, was filled with 5 ml of the resultant solution for injection, and it was sealed by heating.\nFor each aqueous preparation obtained as above, a test evaluating stability at 60° C. was performed by measuring the remaining calcium levofolinate content by the high performance liquid chromatography method."}, "[2]": {"test": "Content during storage of the preparation of the present invention", "conditions": "storage at 40° C./4 months (equivalent to 25° C./2 years)", "excerpt": "In the preparation of the present invention, the pH value of the aqueous preparation is most desirably 6 to 7, the antioxidant is a combination of ascorbic acid with sodium pyrosulfite, and the concentration of the antioxidant is 0.1 to 0.3 w/v %. However, in the case where the concentration of sodium pyrosulfite is not less than 0.2 w/v %, precipitants form in the aqueous preparation. The preparation of the present invention is desirably included in an inner container, e.g., a syringe in a double package form which comprises an inner container and an outer bag, where a deoxidant (oxygen absorber) is placed between the inner container and the outer bag. The preparation of the present invention can be used as a pharmaceutical. The content of calcium salt of 5-formyl-(6S)-tetrahydrofolic acid (i.e. calcium levofolinate) is 90% or more during storage at 40° C./4 months (this condition is equivalent to 25° C./2 years)"}, "[3]": {"test": "Transmittance and coloring of the aqueous solution during storage", "conditions": "aqueous solution", "excerpt": "The suppressing effect can be attained by the action of ascorbic acid which has been stabilized by sodium pyrosulfite."}}}
{"smiles": "Nc1nc(=O)c2c([nH]1)NC[C@H](CNc1ccc(C(=O)N[C@@H](CCC(=O)O)C(=O)O)cc1)N2C=O", "note": "[calcium levofolinate, (6S)-N-[4-[[(2-amino-5-formyl-1,4,5,6,7,8-hexahydro-4-oxo-6-pteridinyl)methyl]amino]benzoyl]-L-glutamic acid]", "values": [{"measurement": "remaining calcium levofolinate content compared with the initial value (100)", "setting": "[1]; ascorbic acid 0% (No addition), 1 month", "result": 79.7}, {"measurement": "remaining calcium levofolinate content compared with the initial value (100)", "setting": "[1]; ascorbic acid 0% (No addition), 1 week", "result": 94.1}, {"measurement": "remaining calcium levofolinate content compared with the initial value (100)", "setting": "[1]; ascorbic acid 0% (No addition), 2 weeks", "result": 88.7}, {"measurement": "remaining calcium levofolinate content compared with the initial value (100)", "setting": "[1]; ascorbic acid 0% (No addition), 3 weeks", "result": 86.0}, {"measurement": "calcium levofolinate content, Initial value (100)", "setting": "[1]; ascorbic acid 0% (No addition)", "result": 100}, {"measurement": "remaining calcium levofolinate content compared with the initial value (100)", "setting": "[1]; ascorbic acid 0.05%, 1 month", "result": 82.6}, {"measurement": "remaining calcium levofolinate content compared with the initial value (100)", "setting": "[1]; ascorbic acid 0.05%, 1 week", "result": 96.4}, {"measurement": "remaining calcium levofolinate content compared with the initial value (100)", "setting": "[1]; ascorbic acid 0.05%, 2 weeks", "result": 92.4}, {"measurement": "remaining calcium levofolinate content compared with the initial value (100)", "setting": "[1]; ascorbic acid 0.05%, 3 weeks", "result": 87.3}, {"measurement": "calcium levofolinate content, Initial value (100)", "setting": "[1]; ascorbic acid 0.05%", "result": 100}, {"measurement": "remaining calcium levofolinate content compared with the initial value (100)", "setting": "[1]; ascorbic acid 0.1%, 1 month", "result": 82.2}, {"measurement": "remaining calcium levofolinate content compared with the initial value (100)", "setting": "[1]; ascorbic acid 0.1%, 1 week", "result": 97.4}, {"measurement": "remaining calcium levofolinate content compared with the initial value (100)", "setting": "[1]; ascorbic acid 0.1%, 2 weeks", "result": 93.1}, {"measurement": "remaining calcium levofolinate content compared with the initial value (100)", "setting": "[1]; ascorbic acid 0.1%, 3 weeks", "result": 87.7}, {"measurement": "calcium levofolinate content, Initial value (100)", "setting": "[1]; ascorbic acid 0.1%", "result": 100}, {"measurement": "remaining calcium levofolinate content compared with the initial value (100)", "setting": "[1]; ascorbic acid 0.3%, 1 month", "result": 81.6}, {"measurement": "remaining calcium levofolinate content compared with the initial value (100)", "setting": "[1]; ascorbic acid 0.3%, 1 week", "result": 96.3}, {"measurement": "remaining calcium levofolinate content compared with the initial value (100)", "setting": "[1]; ascorbic acid 0.3%, 2 weeks", "result": 91.3}, {"measurement": "remaining calcium levofolinate content compared with the initial value (100)", "setting": "[1]; ascorbic acid 0.3%, 3 weeks", "result": 86.9}, {"measurement": "calcium levofolinate content, Initial value (100)", "setting": "[1]; ascorbic acid 0.3%", "result": 100}, {"measurement": "remaining calcium levofolinate content compared with the initial value (100)", "setting": "[1]; ascorbic acid 0.5%, 1 month", "result": 80.9}, {"measurement": "remaining calcium levofolinate content compared with the initial value (100)", "setting": "[1]; ascorbic acid 0.5%, 1 week", "result": 96.5}, {"measurement": "remaining calcium levofolinate content compared with the initial value (100)", "setting": "[1]; ascorbic acid 0.5%, 2 weeks", "result": 90.9}, {"measurement": "remaining calcium levofolinate content compared with the initial value (100)", "setting": "[1]; ascorbic acid 0.5%, 3 weeks", "result": 86.0}, {"measurement": "calcium levofolinate content, Initial value (100)", "setting": "[1]; ascorbic acid 0.5%", "result": 100}, {"measurement": "remaining calcium levofolinate content compared with the initial value (100)", "setting": "[1]; ascorbic acid 1.0%, 1 month", "result": 80.3}, {"measurement": "remaining calcium levofolinate content compared with the initial value (100)", "setting": "[1]; ascorbic acid 1.0%, 1 week", "result": 95.4}, {"measurement": "remaining calcium levofolinate content compared with the initial value (100)", "setting": "[1]; ascorbic acid 1.0%, 2 weeks", "result": 89.8}, {"measurement": "remaining calcium levofolinate content compared with the initial value (100)", "setting": "[1]; ascorbic acid 1.0%, 3 weeks", "result": 84.1}, {"measurement": "calcium levofolinate content, Initial value (100)", "setting": "[1]; ascorbic acid 1.0%", "result": 100}, {"measurement": "content of calcium levofolinate during storage", "setting": "[2]", "result": "≥ 90", "unit": "%"}, {"measurement": "transmittance of the aqueous solution during storage", "setting": "[3]", "result": "lowers gradually"}]}
